Measurements taken from US12385013B2, “Differentiation of pancreatic endocrine cells” (Vertex Pharmaceuticals Incorporated, priority 2020, dated 2025).

Tests used:
EZH2 = EZH2 (Homo sapiens, UniProt Q15910); details: cited from earlier work
[1] = system: S5c cells differentiated from human stem cells; experiment: Single-cell RNA sequencing of S5c cells after stem cell differentiation; type: cell-based; details: compared to Version A protocol, PDBU S4d5 to S5d2
Experimental: (§1) Both Version A and Version B protocols are 6-stage stepwise protocols that share similar reagents and treatment timing. With Version A protocols, stem cells were treated with reagents in the following consecutive orders during the first five stages: Stage 1 (S1), Activin-A for 3 days and also CHIR99021 for the first 24 hr; Stage 2 (S2), KGF for 3 days; Stage 3 (S3), KGF, PDBU, Sant-1, retinoic acid (RA), Activin A, and Thiazovivin for 2 days, and also DMH-1 for the first day; Stage 4 (S4), KGF, Sant-1, Thiazovivin, Activin A, and RA for 6 days; Stage 5 (S5), XXI, Alk5i, GC-1, LDN-193189, Thiazovivin, Staurosporine, and DZNEP for 7 days, and also RA, Sant-1, and Betacellulin for the first 2 days. In Version B protocols, one difference from Version A protocols is that the cells were supplemented with PDBU from day 5 of Stage 4 (S4d5) to day 2 of Stage 5 (S5d2). In one experiment, 500 nM of PDBU was used to treat the cells during S4d5 to S5d2.

[2] = system: Stage 6 cells differentiated from human stem cells; experiment: Flow cytometry of Stage 6 endocrine cell populations (C-peptide/VMAT1, GCG/SST); type: cell-based
Experimental: as §1
In one experiment, four different exemplary Stage 6 treatment paradigms were also tested at S6 in combination with the first five stages of Version A or Version B protocols. Briefly, i) with S6-a paradigm, S5c cells were cultured in DMEM/F12 medium containing 1% HSA for 7-14 days; ii) with S6-b paradigm, S5c cells were cultured in MCDB131 medium containing 0.05% HSA and the following supplements (per 1 L MCDB131): 0.44 g Glucose, 1.23 g NaHCO3, 0.044 g Vitamin C, 10 ml Glutamax, and 5 ml ITS-x; iii) with S6-c paradigm, S5c cells were cultured in MCDB131 medium containing 0.05% HSA and vitamin C for 7-14 days, during which the cells were treated with 10 μM Alk5i, 1 μM GC-1, 100 nM LDN-193189, 2.5 μM Thiazovivin, 3 nM SSP, and 100 nM DZNEP for the first four days; iv) with S6-d paradigm, S5c cells were cultured in MCDB131 medium (no glutamine base media) containing 0.05% HSA, ITS-X, vitamin C, and 4 mM Gln, as well as […] Alk5i, 1 μM GC-1, 100 nM LDN-193189, 2.5 μM Thiazovivin, 3 nM SSP, and 100 nM DZNEP, for four days, followed by culturing in MCDB131 medium (no glutamine base media) containing 0.05% HSA, ITS-X, vitamin C, and 4 mM Gln with no additional factors for additional 3-10 days.
As shown in the figure, with Version A protocols, the percentage of C-peptide-positive, VMAT1-negative cells on S6d9 or S6d14 were all around 35%, except for VA/S6-a and VA/S6-d on S6d9 (both around 40%), whereas with Version B protocols, the percentage of C-peptide-positive, VMAT1-negative cells was from 45% to 55% on S6d9, and around 45% on S6d14.

[3] = system: S5c cells differentiated from human stem cells; experiment: SOX9 expression at the end of S5; type: cell-based; details: compared to Version A protocols
S6d13 cells = experiment: In vitro glucose-stimulated insulin secretion response; type: cell-based, human
Text: In one experiment, in vitro glucose-stimulated insulin secretion response of S6d13 cells generated by Version A and Version B protocols was examined.

[4] = system: Stage 6 cells differentiated from human stem cells; experiment: Insulin content of generated cells; type: cell-based; details: comparison between protocols
[5] = system: S5c cells differentiated from human stem cells; experiment: Flow cytometry of NKX6.1/ISL1 at S5c; type: cell-based; details: for effect on alpha cells (ISL1-positive/NKX6.1-negative) / effect on sc-EC cells (NKX6.1-positive/ISL-negative): PDBU 0.5 μM or TPPB 0.1 μM on S4d5, S5d1, S5d2
Experimental: In one experiment, effect of application of PDBU and gamma secretase inhibitor, XXI, was tested. In this experiment, three differentiation conditions were examined and compared: Version A protocol; Version B; Version B+XXI (both PDBU and XXI was applied from S4d5 to S5d2, and XXI continued to be applied throughout S5). FIG. 10B summarizes the percentages of ISL1-positive cells and ISL1-negative cells at S5c generated via different protocols, as measured by flow cytometry (exemplified in FIG. 10A). As shown in the figure, combined PKC activation and gamma secretase inhibition starting during S4 led to robust induction of ISL1-positive cells from about 65% to higher than 90%, whereas PKC activation alone led to about 80% ISL1-positive cells.
(§2) In another experiment, the effect of two different PKC activators on enterochromaffin cells and alpha cells was examined. In this experiment, three differentiation conditions were examined and compared: Version A protocol; Version A with PDBU applied at 0.5 μM on days S4d5, S5d1, and S5d2 (VA+PDBU); and Version A with ((2S,5S)-(E,E)-8-(5-(4-(Trifluoromethyl)phenyl)-2,4-pentadienoylamino)benzolactam) at 0.1 μM on days S4d5, S5d1, and S5d2 (VA+TPPB). FIG. 11B summarizes the percentages of NKX6.1-positive/ISL-negative cells and ISL1-positive/NKX6.1-negative cells at S5c generated via the different protocols, as measured by flow cytometry (exemplified in FIG. 11A).

[6] = system: cells differentiated from human stem cells; experiment: Yield of total cells; type: cell-based
Experimental: as §2

Sequence of EZH2 (Q15910 whole entry, species assumed): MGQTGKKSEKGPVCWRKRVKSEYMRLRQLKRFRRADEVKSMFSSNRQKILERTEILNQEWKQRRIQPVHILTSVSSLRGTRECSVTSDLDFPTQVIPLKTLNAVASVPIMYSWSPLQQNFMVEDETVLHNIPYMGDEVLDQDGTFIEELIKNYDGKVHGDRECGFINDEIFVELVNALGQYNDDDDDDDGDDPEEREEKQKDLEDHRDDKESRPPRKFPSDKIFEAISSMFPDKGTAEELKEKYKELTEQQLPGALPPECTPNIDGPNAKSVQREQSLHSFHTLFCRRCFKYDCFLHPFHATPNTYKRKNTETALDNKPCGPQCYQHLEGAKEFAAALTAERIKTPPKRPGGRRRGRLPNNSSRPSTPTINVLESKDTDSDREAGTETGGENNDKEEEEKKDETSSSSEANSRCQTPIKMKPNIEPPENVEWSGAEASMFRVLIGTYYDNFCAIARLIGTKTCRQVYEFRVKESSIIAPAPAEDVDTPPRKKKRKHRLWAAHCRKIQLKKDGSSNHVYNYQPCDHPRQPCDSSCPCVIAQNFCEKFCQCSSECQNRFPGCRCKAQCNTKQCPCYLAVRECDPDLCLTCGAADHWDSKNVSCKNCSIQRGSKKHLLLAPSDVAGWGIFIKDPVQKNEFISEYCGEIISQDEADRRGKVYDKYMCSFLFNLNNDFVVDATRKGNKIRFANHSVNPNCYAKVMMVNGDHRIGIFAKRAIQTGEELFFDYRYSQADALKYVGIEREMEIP
Sequence of EZH2 (O75530 whole entry partner, species assumed): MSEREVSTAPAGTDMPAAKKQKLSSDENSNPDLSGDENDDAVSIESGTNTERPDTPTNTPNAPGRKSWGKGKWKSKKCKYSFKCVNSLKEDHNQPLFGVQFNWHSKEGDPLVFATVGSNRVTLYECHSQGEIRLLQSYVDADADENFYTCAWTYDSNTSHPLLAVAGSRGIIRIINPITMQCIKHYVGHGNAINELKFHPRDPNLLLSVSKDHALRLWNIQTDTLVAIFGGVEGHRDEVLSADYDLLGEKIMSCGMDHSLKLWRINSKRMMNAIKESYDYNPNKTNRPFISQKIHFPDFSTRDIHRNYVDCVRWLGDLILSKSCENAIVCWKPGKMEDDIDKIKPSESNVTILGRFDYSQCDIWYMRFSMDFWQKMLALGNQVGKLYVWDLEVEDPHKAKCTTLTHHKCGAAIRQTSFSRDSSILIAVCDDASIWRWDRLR
Sequence of EZH2 (Q15022 whole entry partner, species assumed): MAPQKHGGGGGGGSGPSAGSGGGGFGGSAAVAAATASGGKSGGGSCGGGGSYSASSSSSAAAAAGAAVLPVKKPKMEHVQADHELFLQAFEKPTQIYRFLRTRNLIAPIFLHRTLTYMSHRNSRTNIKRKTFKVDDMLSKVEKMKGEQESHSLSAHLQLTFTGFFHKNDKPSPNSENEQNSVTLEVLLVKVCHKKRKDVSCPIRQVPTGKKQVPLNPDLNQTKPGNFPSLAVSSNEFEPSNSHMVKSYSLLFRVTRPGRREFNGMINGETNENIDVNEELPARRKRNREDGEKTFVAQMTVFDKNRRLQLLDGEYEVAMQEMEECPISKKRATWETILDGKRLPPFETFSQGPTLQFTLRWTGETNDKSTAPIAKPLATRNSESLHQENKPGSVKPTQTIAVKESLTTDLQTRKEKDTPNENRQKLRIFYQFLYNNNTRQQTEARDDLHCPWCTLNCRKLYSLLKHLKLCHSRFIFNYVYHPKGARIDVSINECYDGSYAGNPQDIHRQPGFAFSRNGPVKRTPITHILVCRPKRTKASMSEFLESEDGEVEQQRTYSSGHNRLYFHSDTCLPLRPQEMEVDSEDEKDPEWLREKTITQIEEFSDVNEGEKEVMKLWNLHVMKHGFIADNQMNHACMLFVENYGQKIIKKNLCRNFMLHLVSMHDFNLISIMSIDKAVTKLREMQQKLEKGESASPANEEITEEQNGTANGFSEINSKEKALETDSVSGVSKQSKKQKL

CC[C@H](C)n1cc(C)c2c(C(=O)NCc3c(C)cc(C)[nH]c3=O)cc(-c3ccc(N4CCNCC4)nc3)cc21 [GSK126]
selectivity for EZH2 over EZH1 (EZH2): 150 fold

CCCC(=O)O[C@@H]1[C@@H](C)[C@@]2(O)[C@@H](C=C(CO)C[C@]3(O)C(=O)C(C)=C[C@@H]23)[C@@H]2C(C)(C)[C@]12OC(=O)CCC [Version B, phorbol 12,13-dibutyrate]
percentage of cells expressing CHGA [1]: comparable percentage
percentage of cells expressing DDC (marker of enterochromaffin cells) [1]: much reduced percentage
percentage of cells expressing ISL1 [1]: comparable percentage
percentage of EC cells (VMAT1+/C-peptide−) ([2]; S6d9): less than 20%
percentage of δ cells (SST+/GCG−) ([2]; S6d9, listed as vB/S6-a): around 5%
percentage of δ cells (SST+/GCG−) ([2]; S6d9, listed as vB/S6-b): around 7%
percentage of δ cells (SST+/GCG−) ([2]; S6d9, listed as vB/S6-d): around 8%
percentage of C-peptide-positive, VMAT1-negative cells ([2]; S6d14): around 45%
percentage of EC cells (VMAT1+/C-peptide−) ([2]; S6d14): less than 20%
percentage of α cells (GCG+/SST−) ([2]; S6d14, listed as vB/S6-a): around 22%
percentage of δ cells (SST+/GCG−) ([2]; S6d14, listed as vB/S6-a): around 5%
percentage of α cells (GCG+/SST−) ([2]; S6d14, listed as vB/S6-b): around 22%
percentage of δ cells (SST+/GCG−) ([2]; S6d14, listed as vB/S6-b): around 5%
percentage of α cells (GCG+/SST−) ([2]; S6d14, listed as vB/S6-c): around 15%
percentage of α cells (GCG+/SST−) ([2]; S6d14, listed as vB/S6-d): around 15%
percentage of δ cells (SST+/GCG−) ([2]; S6d14, listed as vB/S6-d): around 8%
cells expressing SOX9 [3]: increased cells expressing SOX9
insulin secretion in response to 20 mM glucose challenge as compared to 2.8 mM glucose challenge (S6d13 cells): no clear increase in insulin secretion
responsiveness to glucose challenges (GSIS) (S6d13 cells): relatively low responsiveness to glucose challenges
insulin content in cells [4]: comparable
effect on alpha cells (ISL1-positive/NKX6.1-negative) [5]: increasing alpha cells
effect on sc-EC cells (NKX6.1-positive/ISL-negative) [5]: reducing sc-EC cells
percentage of ISL1-positive cells ([5]; Version A about 65%): about 80%

CC(C)[C@H]1C(=O)N[C@H](CO)Cc2cc(NC(=O)/C=C/C=C/c3ccc(C(F)(F)F)cc3)ccc2N1C [VA/TPPB, ((2S,5S)-(E,E)-8-(5-(4-(Trifluoromethyl)phenyl)-2,4-pentadienoylamino)benzolactam)]
effect on alpha cells (ISL1-positive/NKX6.1-negative) [5]: increasing alpha cells
effect on sc-EC cells (NKX6.1-positive/ISL-negative) [5]: similarly effective as VA/PDBU at reducing sc-EC cells
increase in yield of total cells as compared to VA/PDBU ([6]; TPPB 0.1 μM on S4d5, S5d1, S5d2): more than 2 fold

C[C@H](NC(=O)Cc1cc(F)cc(F)c1)C(=O)N[C@H]1N=C(c2ccccc2)c2ccccc2N(C)C1=O [XXI]
cell yield ([6]; XXI added to VA/TPPB at days S4d5, S5d1, S5d2): reduction in in cell yield

CCCc1cc(C)[nH]c(=O)c1CNC(=O)c1cc(-c2ccc(N3CCN(C(C)C)CC3)nc2)cc2c1cnn2C(C)C [UNC1999]
selectivity relative to GSK126 (EZH2): less selective
